Data as given in patent publication US11613538B2, “Method of inhibiting or reducing a viral infection” (PTC Therapeutics, Inc., priority 2009, dated 2023).

tested on: hypoxia-induced VEGF production in HeLa cells; assay: cells; assay type: cell-based, human; conditions: Homo sapiens, HeLa

`CCOC(=O)N1CCc2c([nH]c3ccc(Cl)cc23)C1c1ccc(OCCn2nc(N)cc2C)cc1` (stereo not shown) [Compound 1399] and `CCOC(=O)N1CCc2c([nH]c3ccc(Cl)cc23)C1c1ccc(OCC[C@H]2COC(C)(C)O2)cc1` (stereo partly shown) [Compound 1163] cannot be ordered by EC50: under 8 nM for the first, under 8 nM for the second.

Going from `C[Si](C)(C)CCS(=O)(=O)N1CCC(Oc2ccc(C3c4[nH]c5ccc(Cl)cc5c4CCN3C(=O)Oc3ccc(F)cc3)cc2)CC1` (stereo not shown) [Compound 1580] to `COc1ccc(C2c3[nH]c4ccc(S(C)(=O)=O)cc4c3CCN2C(=O)Oc2ccc(F)cc2)cc1` (stereo not shown) [Compound 1499], the EC50 rises from under 8 nM to over 1000 nM. The first is the more potent here.

`COC(=O)[C@H]1CCCN1CCCOc1ccc(C2c3[nH]c4ccc(Cl)cc4c3CCN2C(=O)Oc2ccc(Cl)cc2)cc1` (stereo partly shown) [Compound 1362] and `O=C(Oc1ccc(Cl)cc1)N1CCc2c([nH]c3ccc(Cl)cc23)C1c1ccc(OCCCN2CCC(O)CC2)cc1` (stereo not shown) [Compound 1537] cannot be ordered by EC50: under 8 nM for the first, under 8 nM for the second.

First: CCOC(=O)N1CCc2c([nH]c3ccc(Cl)cc23)[C@@H]1c1ccc(OCCC(O)CNS(C)(=O)=O)cc1 (stereo partly shown) [Compound 1622]
Second: CCOC(=O)N1CCc2c([nH]c3ccc(Cl)cc23)C1c1ccc(OCC(O)CNC(=O)CC)cc1 (stereo not shown) [Compound 1464]
The EC50 of the first is lower: under 8 nM for the first, 8 to 40 nM for the second. The first is the more potent here.

`C=COC(=O)N1CCc2c([nH]c3ccc(Cl)cc23)C1c1ccc(OCC2OCCO2)cc1` (stereo not shown) [Compound 1043] and `CCCOC(=O)N1CCc2c([nH]c3ccc(Cl)cc23)C1c1ccc(OCC2OCCO2)cc1` (stereo not shown) [Compound 1034] cannot be ordered by EC50: under 8 nM for the first, under 8 nM for the second.

First: COc1ccc(C2c3[nH]c4ccc(SC)cc4c3CCN2C(=S)Oc2ccc(F)cc2)cc1 (stereo not shown) [Compound 1486]
Second: COc1ccc(C2c3[nH]c4cccc(Cl)c4c3CCN2C(=O)Oc2ccc(F)cc2)cc1 (stereo not shown) [Compound 1533]
The EC50 of the first is lower: 8 to 40 nM for the first, 40 to 200 nM for the second.

First: CCOC(=O)N1CCc2c([nH]c3ccc(Cl)cc23)C1c1cccc(OCCCn2ccnn2)c1 (stereo not shown) [Compound 1124]
Second: Clc1ccc2[nH]c3c(c2c1)CCN(c1ncccn1)C3c1ccc(OCCCn2ccnn2)cc1 (stereo not shown) [Compound 1200]
The EC50 of the first is higher: 200 to 1000 nM for the first, under 8 nM for the second. The second is the more potent here.

First: COc1ccc(OC(=O)N2CCc3c([nH]c4ccc(Cl)cc34)C2c2ccc(OCC(=O)N3CCN(CCCN(C)C)CC3)cc2)cc1 (stereo not shown) [Compound 1029]
Second: COc1ccc(C2c3[nH]c4ccc(Cl)cc4c3CCN2C(=O)Oc2ccc(Cl)cc2)cc1OCCCCN1CCOCC1 (stereo not shown) [Compound 1097]
The EC50 of the first is higher: over 1000 nM for the first, 40 to 200 nM for the second. The second is the more potent here.

First: N#CCOc1ccc(C2c3[nH]c4ccc(Cl)cc4c3CCN2C(=O)OCCF)cc1 (stereo not shown) [Compound 1544]
Second: COC(=O)N1CCc2c([nH]c3ccc(Cl)cc23)C1c1ccc(OCCC2CCCN2C)cc1 (stereo not shown) [Compound 1007]
The EC50 of the first is lower: 8 to 40 nM for the first, 40 to 200 nM for the second. The first is the more potent here.

Compared with `CCOC(=O)N1CCc2c([nH]c3ccc(Cl)cc23)[C@@H]1c1ccc(OCCC(O)CNC(=O)c2cccnc2)cc1` (stereo partly shown) [Compound 1617], `CCOC(=O)NC[C@H](O)COc1ccc([C@H]2c3[nH]c4ccc(Cl)cc4c3CCN2C(=O)OCC)cc1` [Compound 1651] is lower in EC50: 8 to 40 nM for the first, under 8 nM for the second.

`COc1ccc(OC(=O)N2CCc3c([nH]c4ccc(Cl)cc34)C2c2ccc(OCCCn3nccn3)c(OC)c2)cc1` (stereo not shown) [Compound 1146] and `O=C(Oc1ccccc1)N1CCc2c([nH]c3ccc(Cl)cc23)C1c1ccc(OCCCN2CCOCC2)cc1` (stereo not shown) [Compound 1075] fall in the same range of EC50: 8 to 40 nM for the first, 8 to 40 nM for the second.

First: CC(C)COC(=O)N1CCc2c([nH]c3ccc(Cl)cc23)C1c1ccc(OCCCN2CCN(C)CC2)cc1 (stereo not shown) [Compound 1104]
Second: CC(C)C(=O)N1CCc2c([nH]c3ccc(Cl)cc23)C1c1ccc(OCCCN2CCOCC2)cc1 (stereo not shown) [Compound 1193]
The EC50 of the first is lower: 8 to 40 nM for the first, 40 to 200 nM for the second.

First: CC(C)(C)OC(=O)N1CCc2c([nH]c3ccc(Cl)cc23)C1c1ccc(OCCCn2cnnc2)cc1 (stereo not shown) [Compound 1187]
Second: CCOC(=O)N1CCc2c([nH]c3ccc(Cl)cc23)C1c1ccc(OCC(=O)NCCN2CCOCC2)cc1 (stereo not shown) [Compound 1004]
The EC50 of the first is lower: under 8 nM for the first, 8 to 40 nM for the second. The first is the more potent here.

Compared with `CC#CCOC(=O)N1CCc2c([nH]c3ccc(Cl)cc23)[C@@H]1c1ccc(OC2CCN(C)CC2)cc1` [Compound 1684], `CCOC(=O)N1CCc2c([nH]c3ccc(Br)cc23)C1c1ccc(OCC[C@H](O)CO)cc1` (stereo partly shown) [Compound 1345] is lower in EC50: 8 to 40 nM for the first, under 8 nM for the second.
